Laboratory results reported in ChEMBL document CHEMBL5712895, “PRC2 Is Dispensable in Vivo for β-Catenin-Mediated Repression of Chondrogenesis in the Mouse Embryonic Cranial Mesenchyme” (G3 (Bethesda), 2018).
Calls of active or inactive are those of the source. No cut-off for these calls is given here.

Columns and labels:
[1] = target: Histone-lysine N-methyltransferase EZH2 (Mus musculus) (UniProt Q61188); test: Inhibition of EZH2 in mouse primary cranial mesenchyme ectoderm fibroblast assessed as reduction in H3K27me3 protein level at 150 to 2000 nM by Western blotting analysis; settings: dose 150-2000 nM
Histone-lysine N-methyltransferase EZH2 (Mus musculus), sequence (Q61188 whole entry): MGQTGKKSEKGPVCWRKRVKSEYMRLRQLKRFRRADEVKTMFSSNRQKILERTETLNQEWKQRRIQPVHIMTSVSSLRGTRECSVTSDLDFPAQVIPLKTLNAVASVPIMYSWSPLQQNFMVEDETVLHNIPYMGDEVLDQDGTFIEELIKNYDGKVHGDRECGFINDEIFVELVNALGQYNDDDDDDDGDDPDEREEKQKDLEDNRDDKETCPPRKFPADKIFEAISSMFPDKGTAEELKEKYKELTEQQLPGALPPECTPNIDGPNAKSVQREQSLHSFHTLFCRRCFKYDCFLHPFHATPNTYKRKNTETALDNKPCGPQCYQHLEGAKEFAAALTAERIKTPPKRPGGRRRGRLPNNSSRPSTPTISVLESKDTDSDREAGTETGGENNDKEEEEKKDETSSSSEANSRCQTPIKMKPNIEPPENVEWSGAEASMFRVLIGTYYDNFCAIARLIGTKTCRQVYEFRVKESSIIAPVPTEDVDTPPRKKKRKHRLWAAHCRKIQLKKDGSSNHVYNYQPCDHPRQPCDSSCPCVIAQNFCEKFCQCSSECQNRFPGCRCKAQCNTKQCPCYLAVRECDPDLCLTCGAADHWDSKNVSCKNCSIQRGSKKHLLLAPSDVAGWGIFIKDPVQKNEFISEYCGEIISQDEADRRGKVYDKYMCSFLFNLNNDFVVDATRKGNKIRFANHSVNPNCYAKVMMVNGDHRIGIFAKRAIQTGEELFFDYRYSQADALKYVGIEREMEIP

[2] = target: T1, Histone-lysine N-methyltransferase EZH1 (Homo sapiens, UniProt Q92800); test: Inhibition of EZH1 (unknown origin)
T1 sequence (Q92800 whole entry): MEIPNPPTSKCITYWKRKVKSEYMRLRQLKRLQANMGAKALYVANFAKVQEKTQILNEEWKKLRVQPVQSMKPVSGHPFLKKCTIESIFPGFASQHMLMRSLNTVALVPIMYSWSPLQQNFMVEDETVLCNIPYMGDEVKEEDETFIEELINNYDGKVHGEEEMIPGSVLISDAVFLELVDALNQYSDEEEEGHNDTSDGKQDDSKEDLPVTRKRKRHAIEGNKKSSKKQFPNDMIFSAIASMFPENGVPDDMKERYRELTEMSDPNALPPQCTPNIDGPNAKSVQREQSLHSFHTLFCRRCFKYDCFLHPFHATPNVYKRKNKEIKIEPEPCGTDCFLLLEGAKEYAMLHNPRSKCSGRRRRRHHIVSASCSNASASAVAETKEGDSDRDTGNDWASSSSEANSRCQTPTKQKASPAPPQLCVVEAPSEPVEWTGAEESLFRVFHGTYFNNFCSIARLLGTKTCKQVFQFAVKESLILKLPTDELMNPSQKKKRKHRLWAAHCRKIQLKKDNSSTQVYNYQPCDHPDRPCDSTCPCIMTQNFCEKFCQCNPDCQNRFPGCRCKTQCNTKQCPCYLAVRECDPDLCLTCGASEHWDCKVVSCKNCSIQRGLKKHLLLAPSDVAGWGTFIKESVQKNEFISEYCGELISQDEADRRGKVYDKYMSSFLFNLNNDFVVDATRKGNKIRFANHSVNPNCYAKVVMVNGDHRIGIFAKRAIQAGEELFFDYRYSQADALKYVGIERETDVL

[3] = target: Histone-lysine N-methyltransferase EZH2 (Mus musculus) (UniProt Q61188); test: Inhibition of EZH2 in mouse primary cranial mesenchyme ectoderm fibroblast assessed as increase in Sox9 mRNA level by qPCR analysis
[4] = target: Histone-lysine N-methyltransferase EZH2 (Homo sapiens, UniProt Q15910); test: Inhibition of EZH2 (unknown origin)
Histone-lysine N-methyltransferase EZH2, sequence (Q15910 whole entry): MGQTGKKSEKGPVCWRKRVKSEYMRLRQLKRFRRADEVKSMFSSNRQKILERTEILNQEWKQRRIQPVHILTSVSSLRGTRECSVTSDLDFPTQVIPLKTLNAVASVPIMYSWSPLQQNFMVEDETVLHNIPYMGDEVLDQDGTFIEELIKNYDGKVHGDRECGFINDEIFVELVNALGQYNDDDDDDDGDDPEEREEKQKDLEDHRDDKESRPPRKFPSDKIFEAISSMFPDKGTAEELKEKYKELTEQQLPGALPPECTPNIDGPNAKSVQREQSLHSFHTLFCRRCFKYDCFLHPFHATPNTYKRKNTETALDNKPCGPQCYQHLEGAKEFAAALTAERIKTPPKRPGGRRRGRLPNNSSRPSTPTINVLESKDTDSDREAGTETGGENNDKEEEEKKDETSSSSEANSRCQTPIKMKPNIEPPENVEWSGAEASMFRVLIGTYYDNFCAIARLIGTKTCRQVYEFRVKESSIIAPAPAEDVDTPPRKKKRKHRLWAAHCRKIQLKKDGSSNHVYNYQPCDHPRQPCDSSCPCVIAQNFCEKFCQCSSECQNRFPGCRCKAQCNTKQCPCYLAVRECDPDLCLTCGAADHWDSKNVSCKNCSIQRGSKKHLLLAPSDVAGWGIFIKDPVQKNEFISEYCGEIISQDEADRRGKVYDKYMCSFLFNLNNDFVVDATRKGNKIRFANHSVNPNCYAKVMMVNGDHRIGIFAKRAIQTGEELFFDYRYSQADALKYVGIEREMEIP

[5] = target: Histone-lysine N-methyltransferase EZH2 (Mus musculus) (UniProt Q61188); test: Inhibition of EZH2 in mouse primary cranial mesenchyme ectoderm fibroblast assessed as reduction in H3K27me3 protein level at 500 to 2000 nM by Western blotting analysis; settings: dose 500-2000 nM

Row | inhibition [1] | IC50 [2] [nM] | inhibition [3] | IC50 [4] [nM] | inhibition [5] | SMILES
1 | Active | 75 | inactive | – | – | CC[C@H](C)n1cc(C)c2c(C(=O)NCc3c(C)cc(C)[nH]c3=O)cc(-c3ccc(N4CCNCC4)nc3)cc21 [GSK2816126]
2 | – | – | inactive | < 10 | Active | CCCc1cc(C)[nH]c(=O)c1CNC(=O)c1cc(-c2ccc(N3CCN(C(C)C)CC3)nc2)cc2c1cnn2C(C)C
